Measurements taken from ChEMBL document CHEMBL6109143, “Adamantane-Quinoxalone Hybrids: Precision Chemotypes and Their Molecular Mechanisms in Acute Myeloid Leukemia” (J Med Chem, 2025).
pIC50: −log10 of the molar value. Several values for one entry are separate records, joined by “and”; a condition that tells them apart may be missing. Identical values can stand only once. Activity calls are given as the source filed them. No cut-off for these calls is given here.

Legend:
Kasumi 1 [1] = assay: Cytotoxicity against human Kasumi 1 cells assessed as reduction in cell viability at 50 uM incubated for 24 hrs by MTT assay relative to control; assay type: functional
Kasumi 1 [2] = assay: Cytotoxicity against human Kasumi 1 cells harboring chromosomal translocation(8;21) assessed as reduction in cell viability incubated for 24 hrs by MTT assay; assay type: functional, cell-based; settings: Kasumi 1, 24 h
THP-1 = assay: Cytotoxicity against human THP-1 cells harboring chromosomal translocation(9;11) assessed as reduction in cell viability incubated for 24 hrs by MTT assay; assay type: functional, cell-based; settings: THP-1, 24 h
Kasumi 1 [3] = assay: Induction of cell cycle arrest in human Kasumi 1 cells assessed as increase in cells at G2 phase at IC50 concentration incubated for 24 hrs by PI staining based flow cytometric analysis (reference value: 6.65 %); assay type: functional
Kasumi 1 [4] = assay: Induction of apoptosis in human Kasumi 1 cells assessed as late apoptotic cells at IC50 concentration incubated for 24 hrs by Annexin V/PI staining based flow cytometric analysis (reference value: 2.07 %); assay type: functional
Kasumi 1 [5] = assay: Effect on oxidative phosphorylation related protein expression in human Kasumi 1 cells by GSEA; assay type: functional, cell-based
ARPE-19 = assay: Cytotoxicity against human ARPE-19 cells assessed as reduction in cell viability incubated for 24 hrs by MTT assay; assay type: toxicity, cell-based; settings: arpe-19, 24 h
Kasumi 1 [6] = assay: Induction of apoptosis in human Kasumi 1 cells assessed as necrotic apoptotic cells at IC50 concentration incubated for 24 hrs by Annexin V/PI staining based flow cytometric analysis (reference value: 0.12 %); assay type: functional
Kasumi 1 [7] = assay: Upregulation of interferon-gamma response related genes in human Kasumi 1 cells at IC50 concentration incubated for 24 hrs by RNA sequencing analysis; assay type: functional, cell-based
Kasumi 1 [8] = assay: Induction of cell cycle arrest in human Kasumi 1 cells assessed as increase in cells at G2/M phase at IC50 concentration incubated for 24 hrs by PI staining based flow cytometric analysis; assay type: functional
Kasumi 1 [9] = assay: Induction of apoptosis in human Kasumi 1 cells assessed as early apoptotic cells at IC50 concentration incubated for 24 hrs by Annexin V/PI staining based flow cytometric analysis (reference value: 2.38 %); assay type: functional
Kasumi 1 [10] = assay: Downregulation of KRAS signaling related genes in human Kasumi 1 cells at IC50 concentration incubated for 24 hrs by RNA sequencing analysis; assay type: functional, cell-based
CAL-27 = assay: Cytotoxicity against human CAL-27 cells assessed as cell viability at 1 to 50 uM incubated for 24 hrs by MTT assay; assay type: functional, cell-based; settings: dose 1-50 µM
Kasumi 1 [11] = assay: Downregulation of PIM1 gene expression in human Kasumi 1 cells at IC50 concentration incubated for 24 hrs by RNA sequencing analysis; assay type: functional, cell-based
Kasumi 1 [12] = assay: Downregulation of G2M checkpoint related genes in human Kasumi 1 cells at IC50 concentration incubated for 24 hrs by RNA sequencing analysis; assay type: functional, cell-based
Kasumi 1 [13] = assay: Downregulation of CD109 gene expression in human Kasumi 1 cells at IC50 concentration incubated for 24 hrs by RNA sequencing analysis; assay type: functional, cell-based
Kasumi 1 [14] = assay: Effect on glycolysis pathway related protein expression in human Kasumi 1 cells by GSEA; assay type: functional, cell-based
Kasumi 1 [15] = assay: Downregulation of MYCN gene expression in human Kasumi 1 cells at IC50 concentration incubated for 24 hrs by RNA sequencing analysis; assay type: functional, cell-based
Kasumi 1 [16] = assay: Effect on hypoxia pathway related protein expression in human Kasumi 1 cells by GSEA; assay type: functional, cell-based
MDA-MB-231 = assay: Cytotoxicity against human MDA-MB-231 cells assessed as cell viability at 1 to 50 uM incubated for 24 hrs by MTT assay; assay type: functional, cell-based; settings: dose 1-50 µM
Kasumi 1 [17] = assay: Downregulation of HMMR gene expression in human Kasumi 1 cells at IC50 concentration incubated for 24 hrs by RNA sequencing analysis; assay type: functional, cell-based
A549 = assay: Cytotoxicity against human A549 cells assessed as cell viability at 1 to 50 uM incubated for 24 hrs by MTT assay; assay type: functional, cell-based; settings: dose 1-50 µM
Kasumi 1 [18] = assay: Downregulation of UGFR1 gene expression in human Kasumi 1 cells at IC50 concentration incubated for 24 hrs by RNA sequencing analysis; assay type: functional, cell-based
Kasumi 1 [19] = assay: Downregulation of MELK protein expression in human Kasumi 1 cells at IC50 concentration incubated for 24 hrs by LC-MS/MS analysis; assay type: functional, cell-based
Kasumi 1 [20] = assay: Effect on MYC target related protein expression in human Kasumi 1 cells by GSEA; assay type: functional, cell-based
MCF-10A = assay: Cytotoxicity against human MCF-10A cells assessed as cell viability incubated for 24 hrs by MTT assay; assay type: toxicity, cell-based
Kasumi 1 [21] = assay: Effect on adipogenesis pathway related protein expression in human Kasumi 1 cells by GSEA; assay type: functional, cell-based
Kasumi 1 [22] = assay: Downregulation of KRAS signaling pathway related genes in human Kasumi 1 cells at IC50 concentration incubated for 24 hrs by RNA sequencing analysis; assay type: functional, cell-based
Kasumi 1 [23] = assay: Downregulation of estrogen pathway related genes in human Kasumi 1 cells at IC50 concentration incubated for 24 hrs by RNA sequencing analysis; assay type: functional, cell-based
Kasumi 1 [24] = assay: Effect on E2F target related protein expression in human Kasumi 1 cells by GSEA; assay type: functional, cell-based
Kasumi 1 [25] = assay: Induction of cell cycle arrest in human Kasumi 1 cells assessed as increase in cells at S phase at IC50 concentration incubated for 24 hrs by PI staining based flow cytometric analysis (reference value: 27.09 %); assay type: functional
Kasumi 1 [26] = assay: Downregulation of BCL6 gene expression in human Kasumi 1 cells at IC50 concentration incubated for 24 hrs by RNA sequencing analysis; assay type: functional, cell-based
Kasumi 1 [27] = assay: Upregulation of NR5A1 gene expression in human Kasumi 1 cells at IC50 concentration incubated for 24 hrs by RNA sequencing analysis; assay type: functional, cell-based
Kasumi 1 [28] = assay: Induction of apoptosis in human Kasumi 1 cells assessed as viable cells at IC50 concentration incubated for 24 hrs by Annexin V/PI staining based flow cytometric analysis (reference value: 95.43 %); assay type: functional
Kasumi 1 [29] = assay: Downregulation of TNF-alpha signaling related genes in human Kasumi 1 cells at IC50 concentration incubated for 24 hrs by RNA sequencing analysis; assay type: functional, cell-based
Kasumi 1 [30] = assay: Upregulation of interferon-alpha response related genes in human Kasumi 1 cells at IC50 concentration incubated for 24 hrs by RNA sequencing analysis; assay type: functional, cell-based
Kasumi 1 [31] = assay: Upregulation of CSF3R gene expression in human Kasumi 1 cells at IC50 concentration incubated for 24 hrs by RNA sequencing analysis; assay type: functional, cell-based
[32] = Cytotoxicity against human Oral epithelial cells assessed as cell viability incubated for 24 hrs by MTT assay; assay type: toxicity, cell-based
Kasumi 1 [33] = assay: Effect on mTORC1 signaling related protein expression in human Kasumi 1 cells by GSEA; assay type: functional, cell-based
Kasumi 1 [34] = assay: Downregulation of E2F target related genes in human Kasumi 1 cells at IC50 concentration incubated for 24 hrs by RNA sequencing analysis; assay type: functional, cell-based
Kasumi 1 [35] = assay: Upregulation of KLF2 gene expression in human Kasumi 1 cells at IC50 concentration incubated for 24 hrs by RNA sequencing analysis; assay type: functional, cell-based
Kasumi 1 [36] = assay: Downregulation of CDK1 protein expression in human Kasumi 1 cells at IC50 concentration incubated for 24 hrs by LC-MS/MS analysis; assay type: functional, cell-based
Kasumi 1 [37] = assay: Induction of cell cycle arrest in human Kasumi 1 cells assessed as decrease in cells at S phase at IC50 concentration incubated for 24 hrs by PI staining based flow cytometric analysis; assay type: functional
Kasumi 1 [38] = assay: Induction of cell cycle arrest in human Kasumi 1 cells assessed as increase in cells at G1 phase at IC50 concentration incubated for 24 hrs by PI staining based flow cytometric analysis (reference value: 66.25 %); assay type: functional
Kasumi 1 [39] = assay: Upregulation of DACH1 gene expression in human Kasumi 1 cells at IC50 concentration incubated for 24 hrs by RNA sequencing analysis; assay type: functional, cell-based

## O=C1C(C23CC4CC(CC(C4)C2)C3)Nc2ccccc2N1Cc1ccc(F)cc1 (configuration not stated)
Kasumi 1 [1]
  Activity: >30%

## CC(C)CCN1C(=O)C(C23CC4CC(CC(C4)C2)C3)Nc2ccccc21 (configuration not stated)
Kasumi 1 [1]
  Activity: >30%

## CCCCCCN1C(=O)C(C23CC4CC(CC(C4)C2)C3)Nc2ccccc21 (configuration not stated)
Kasumi 1 [1]
  Activity: >30%

## O=C1C(C23CC4CC(CC(C4)C2)C3)Nc2ccccc2N1c1ccc(-c2ccccc2)cc1 (configuration not stated)
Kasumi 1 [1]
  Activity: >30%

## Cc1ccc(CN2C(=O)C(C34CC5CC(CC(C5)C3)C4)Nc3cc(-c4ccc5c(c4)NC(C46CC7CC(CC(C7)C4)C6)C(=O)N5Cc4ccc(C)cc4)ccc32)cc1 (configuration not stated)
Kasumi 1 [1]
  Activity: >30%

## O=C1C(C23CC4CC(CC(C4)C2)C3)Nc2ccccc2N1c1ccc2ccccc2c1 (configuration not stated)
Kasumi 1 [1]
  Activity: >30%

## O=C1C(C23CC4CC(CC(C4)C2)C3)Nc2cc3ccccc3cc2N1Cc1ccccc1 (configuration not stated)
Kasumi 1 [1]
  Activity: >30%

## O=C1C(C23CC4CC(CC(C4)C2)C3)Nc2ccccc2N1Cc1ccc(Br)cc1 (configuration not stated)
Kasumi 1 [1]
  Activity: >30%

## O=C1C(C23CC4CC(CC(C4)C2)C3)Nc2ccccc2N1CC1CC1 (configuration not stated)
Kasumi 1 [2]
  pIC50: 4.33
Kasumi 1 [1]; 24 h, 50 µM
  Activity: <30% and >30%
THP-1
  pIC50: < 4.30

## CCCCCCCCCCCCN1C(=O)C(C23CC4CC(CC(C4)C2)C3)Nc2ccccc21 (configuration not stated)
Kasumi 1 [1]
  Activity: >30%

## C=CCCCCN1C(=O)C(C23CC4CC(CC(C4)C2)C3)Nc2ccccc21 (configuration not stated)
Kasumi 1 [1]
  Activity: >30%

## O=C1C(C23CC4CC(CC(C4)C2)C3)Nc2ccccc2N1c1ccc(OC(F)(F)F)cc1 (configuration not stated)
Kasumi 1 [1]
  Activity: >30%

## Cc1cc2c(cc1C)N(Cc1ccccc1)C(=O)C(C13CC4CC(CC(C4)C1)C3)N2 (configuration not stated)
Kasumi 1 [1]
  Activity: >30%

## CCN1C(=O)C(C23CC4CC(CC(C4)C2)C3)Nc2ccccc21 (configuration not stated)
Kasumi 1 [1]
  Activity: >30%

## Cc1ccccc1CN1C(=O)C(C23CC4CC(CC(C4)C2)C3)Nc2ccccc21 (configuration not stated)
Kasumi 1 [1]
  Activity: >30%

## O=C1C(C23CC4CC(CC(C4)C2)C3)Nc2cc(Cl)c(Cl)cc2N1Cc1ccccc1 (configuration not stated)
Kasumi 1 [1]
  Activity: >30%

## CSc1ccc(CN2C(=O)C(C34CC5CC(CC(C5)C3)C4)Nc3ccccc32)cc1 (configuration not stated)
Kasumi 1 [1]
  Activity: >30%

## O=C1C(C23CC4CC(CC(C4)C2)C3)Nc2ccccc2N1Cc1cccc(-c2ccccc2)c1 (configuration not stated)
Kasumi 1 [1]
  Activity: >30%

## Cc1ccc(CN2C(=O)C(C34CC5CC(CC(C5)C3)C4)Nc3ccccc32)cc1 (configuration not stated)
Kasumi 1 [1]
  Activity: >30%

## C=CCN1C(=O)C(C23CC4CC(CC(C4)C2)C3)Nc2ccccc21 (configuration not stated)
Kasumi 1 [2]
  pIC50: 4.43
Kasumi 1 [1]
  Activity: <30%
THP-1
  pIC50: < 4.30

## O=C1C(C23CC4CC(CC(C4)C2)C3)Nc2ccccc2N1c1ccccc1 (configuration not stated)
Kasumi 1 [3]
  Activity: 12.31%
Kasumi 1 [4]
  Activity: 5.37%
Kasumi 1 [5]
  Activity: Active
ARPE-19
  Activity: Non-toxic
Kasumi 1 [6]
  Activity: 0.02%
Kasumi 1 [7]
  Activity: Active
Kasumi 1 [8]
  Activity: Active
Kasumi 1 [9]
  Activity: 10.74%
Kasumi 1 [10]
  Activity: Active
Kasumi 1 [2]
  pIC50: 5.68
CAL-27
  Activity: inactive
Kasumi 1 [11]
  Activity: Active
Kasumi 1 [12]
  Activity: Active
Kasumi 1 [13]
  Activity: Active
Kasumi 1 [14]
  Activity: Active
Kasumi 1 [15]
  Activity: Active
Kasumi 1 [16]
  Activity: Active
MDA-MB-231
  Activity: inactive
Kasumi 1 [17]
  Activity: Active
Kasumi 1 [1]
  Activity: <30%
A549
  Activity: inactive
Kasumi 1 [18]
  Activity: Active
Kasumi 1 [19]
  Activity: Active
THP-1
  pIC50: 4.39
Kasumi 1 [20]
  Activity: Active
MCF-10A
  Activity: Non-toxic
Kasumi 1 [21]
  Activity: Active
Kasumi 1 [22]
  Activity: Active
Kasumi 1 [23]
  Activity: Active
Kasumi 1 [24]
  Activity: Active
Kasumi 1 [25]
  Activity: 18.69%
Kasumi 1 [26]
  Activity: Active
Kasumi 1 [27]
  Activity: Active
Kasumi 1 [28]
  Activity: 83.88%
Kasumi 1 [29]
  Activity: Active
Kasumi 1 [30]
  Activity: Active
Kasumi 1 [31]
  Activity: Active
[32]
  Activity: Non-toxic
Kasumi 1 [33]
  Activity: Active
Kasumi 1 [34]
  Activity: Active
Kasumi 1 [35]
  Activity: Active
Kasumi 1 [36]
  Activity: Active
Kasumi 1 [37]
  Activity: Active
Kasumi 1 [38]
  Activity: 68.99%
Kasumi 1 [39]
  Activity: Active

## CN1C(=O)C(C23CC4CC(CC(C4)C2)C3)Nc2ccccc21 (configuration not stated)
Kasumi 1 [1]
  Activity: >30%

## O=C1C(C23CC4CC(CC(C4)C2)C3)Nc2ccccc2N1Cc1ccccc1 (configuration not stated)
Kasumi 1 [1]
  Activity: >30%

## CC(C)CCCC(C)CCN1C(=O)C(C23CC4CC(CC(C4)C2)C3)Nc2ccccc21 (configuration not stated)
Kasumi 1 [1]
  Activity: >30%
